Reference: PubChem BioAssay (NCI)
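Method: 48-hour compound exposure of cells in 96-well plates, five concentrations, linear interpolation of endpoints. At the TGI there is no net growth.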

How the values were obtained:
Experiment in all cases: NCI anticancer screen, dose series, 48 h
SK-MEL-5 melanoma = test system: SK-MEL-5 melanoma
UACC-62 melanoma = test system: UACC-62 melanoma
A549 NSCLC = test system: A549 NSCLC
HL-60(TB) leukemia = test system: HL-60(TB) leukemia
786-0 renal = test system: 786-0 renal
UACC-257 melanoma = test system: UACC-257 melanoma
HT29 colon = test system: HT29 colon
RXF 393 renal = test system: RXF 393 renal
HCC-2998 colon = test system: HCC-2998 colon
SK-OV-3 ovarian = test system: SK-OV-3 ovarian
OVCAR-8 ovarian = test system: OVCAR-8 ovarian
MALME-3M melanoma = test system: MALME-3M melanoma
KM12 colon = test system: KM12 colon
IGROV1 ovarian = test system: IGROV1 ovarian
OVCAR-5 ovarian = test system: OVCAR-5 ovarian
ACHN renal = test system: ACHN renal
HCT-15 colon = test system: HCT-15 colon
SF-295 CNS = test system: SF-295 CNS
HS 578T breast = test system: HS 578T breast
MDA-N = test system: MDA-N

Row | SMILES | TGI (SK-MEL-5 melanoma) [µM] | TGI (UACC-62 melanoma) [µM] | TGI (A549 NSCLC) [µM] | TGI (HL-60(TB) leukemia) [µM] | TGI (786-0 renal) [µM] | TGI (UACC-257 melanoma) [µM] | TGI (HT29 colon) [µM] | TGI (RXF 393 renal) [µM] | TGI (HCC-2998 colon) [µM] | TGI (SK-OV-3 ovarian) [µM] | TGI (OVCAR-8 ovarian) [µM] | TGI (MALME-3M melanoma) [µM] | TGI (KM12 colon) [µM] | TGI (IGROV1 ovarian) [µM] | TGI (OVCAR-5 ovarian) [µM] | TGI (ACHN renal) [µM] | TGI (HCT-15 colon) [µM] | TGI (SF-295 CNS) [µM] | TGI (HS 578T breast) [µM] | TGI (MDA-N) [µM]
1 | O=C1COc2cc(NC(=S)Nc3ccccc3)ccc2N1 | > 100 | > 100 | > 100 | > 100 | > 100 | > 100 | > 100 | > 100 | > 100 | > 100 | > 100 | > 100 | > 100 | > 100 | > 100 | > 100 | > 100 | > 100 |  | 
2 | O=S(=O)(O)c1ccc(N=Nc2ccc3c(S(=O)(=O)O)cccc3c2O)c2ccccc12 | > 100 | > 100 | > 100 |  | > 100 | > 100 | > 100 | > 100 |  | > 100 | > 100 | > 100 | > 100 | > 100 | > 100 | > 100 | > 100 | > 100 | > 100 | > 100
3 | CC1(C)OCN(c2ccc(N3CCOCC3)cc2)Cn2c1nc1ccccc12 |  | > 100 | > 100 | 72.9 | > 100 | > 100 | > 100 | > 100 | > 100 | > 100 | > 100 | > 100 | > 100 | > 100 |  | > 100 | > 100 | > 100 |  | 
4 | Cc1c(N2C(=O)C(Cl)C2/C=C/c2ccccc2)c(=O)n(-c2ccccc2)n1C (configuration not stated) | 30 | 31.2 | 86.9 | 45.3 | 67.1 | 33 | 56.3 | 79.3 |  | 76.6 | 56.4 | 25 | 29.5 | 42.8 | > 100 | 45.6 |  | 48.1 |  | 40
5 | CCCCCCNCCc1cnc[nH]1 | > 100 | > 100 | > 100 |  | > 100 | > 100 | > 100 | > 100 | > 100 | > 100 | > 100 | > 100 | > 100 | > 100 | > 100 | > 100 | > 100 | > 100 | > 100 | 
6 | CN(/N=C/c1ccc(C(=O)O)cc1)C1=NCCCCN1 | > 100 | > 100 | > 100 | > 100 | > 100 | > 100 | > 100 |  | > 100 | > 100 | > 100 | > 100 | > 100 | > 100 | > 100 | > 100 | > 100 | > 100 |  | > 100
7 | O=C1NC(=S)N/C1=C\c1cccs1 | > 100 | > 100 | > 100 |  | > 100 |  | > 100 | > 100 | > 100 | > 100 | > 100 | > 100 | > 100 | > 100 | > 100 |  | > 100 | > 100 | > 100 | > 100
8 | O=C(CSc1nnc(-c2ccccn2)s1)N/N=C/c1ccccc1 | > 100 | > 100 | > 100 |  | > 100 | > 100 | > 100 |  |  | > 100 | > 100 | > 100 | > 100 | > 100 | > 100 | > 100 | > 100 | > 100 | > 100 | > 100
9 | CC1(C)C2CCC1(C)C(N/C(Sc1ccccc1)=C(/C(Cl)=C(Cl)Cl)[N+](=O)[O-])C2 (configuration not stated) |  | 21.3 | 45.9 |  | 26.9 | 27.4 | 30.7 |  | 28.5 | 34.7 | 27.3 | 28.4 | 18.8 |  | 65.5 | 26.3 | 24.1 | 27.7 |  | 27.6
10 | CCC1=CCN(c2cc(C)ccn2)OC1c1ccc(OC)cc1 (configuration not stated) | 30.5 | > 100 | > 100 | 50.6 | > 100 | 86.1 | 50.2 | 58.1 | 86.8 | > 100 | > 100 | 84.1 | > 100 | > 100 | > 100 | > 100 | > 100 | 70.8 |  | 
11 | Cc1cc(C)c2c(=O)cc(-c3cccc4ccccc34)[nH]c2n1 | 1.74 | > 61.6 | > 100 | 0.734 | > 100 |  | 2.31 | > 37.1 | 7.37 | > 42 | 7.38 | 3.29 | 15.4 | > 84.5 | > 100 | > 100 | 14.3 | > 100 | > 100 | 
12 | O=C(NN1C(=O)C(Cl)C1c1ccc(Cl)cc1)c1c(Cl)c(Cl)c(Cl)c(Cl)c1-c1nc2ccccc2[nH]1 (configuration not stated) | > 100 | 33.9 | > 100 | 59.6 | 47.4 | > 100 | 75.8 | 17.9 | 30.9 | > 100 | 43.7 | 63.4 | > 100 | 45.8 | > 100 | 43.5 | 54.4 | > 100 | > 100 | 
13 | OCC12C=CC(C1)c1ccccc12 (configuration not stated) | > 100 | > 100 | > 100 | > 100 | > 100 | > 100 | > 100 |  | > 100 | > 100 | > 100 | > 100 |  | > 100 | > 100 | > 100 | > 100 | > 100 |  | 
14 | Cc1cccc(Cl)c1NCC(O)CN1CCN(C)CC1 (configuration not stated) | > 100 | > 100 | > 100 |  | > 100 | > 100 | > 100 | > 100 | > 100 |  | > 100 | > 100 | > 100 | > 100 | > 100 | > 100 | > 100 | > 100 | > 100 | > 100
15 | ONC1=Nc2cc(Cl)ccc2C(=S)N2CSCC12 (configuration not stated) | > 100 | > 100 | > 100 |  | > 100 | > 100 | > 100 | > 100 | > 100 | > 100 | > 100 | > 100 | > 100 | > 100 | > 100 | > 100 | > 100 | > 100 | > 100 | > 100
16 | O=C1C2=Cc3ccccc3OC2(O)Oc2cc3ccccc3cc21 (configuration not stated) | > 100 | > 100 | > 100 |  | > 100 | > 100 | > 100 | > 100 | 74.9 | > 100 | > 100 | > 100 | > 100 | > 100 | > 100 | > 100 | > 100 | > 100 |  | > 100
17 | CCC(CC)NC1=C(NC(C)=O)C(=O)c2ccccc2C1=O | > 50 | > 50 | > 50 | > 50 | > 50 | > 50 | > 50 | > 50 | > 50 | > 50 | > 50 | > 50 | > 50 | > 50 |  | > 50 | > 50 | > 50 |  | 
18 | CCOC1C(Br)Cn2c(=O)c3cc4ccccc4cc3c(=O)n2C1C (configuration not stated) | > 100 |  | > 100 | > 100 | > 100 | > 100 | > 100 | > 100 | > 100 | > 100 | > 100 | > 100 | > 100 | > 100 | > 100 | > 100 | > 100 | > 100 |  | 
19 | CNc1ncccc1Nc1cc(=O)n2c3cccnc3n(C)c2c1 | > 100 | > 100 | > 100 |  | > 100 | > 100 | > 100 | 80.8 | > 100 | > 100 | > 100 |  | > 100 | > 100 | > 100 | > 100 | > 100 | > 100 |  | > 100
20 | COc1ccc2nc3cc(Cl)ccc3c(Sc3ccc([N+](=O)[O-])cc3C)c2c1 | > 100 | > 100 | > 100 |  | > 100 | > 100 |  | > 100 | > 100 | > 100 | > 100 | > 100 | > 100 | > 100 | > 100 | > 100 | > 100 | > 100 |  | 
21 | O=[N+]([O-])c1ccc(CSc2nncc3[nH]cnc23)cc1 | > 100 | > 100 | > 100 | > 100 | > 100 | > 100 | > 100 |  | > 100 | > 100 | > 100 | > 100 | > 100 | > 100 | > 100 | > 100 | > 100 | > 100 |  | > 100
22 | CCN1C[C@]2(C)CC[C@H](O)C34C1C(C[C@@H]32)[C@@]1(O)CC[C@H]2C[C@@H]4[C@@H]1[C@H]2O | > 100 | > 100 | > 100 | > 100 | > 100 | > 100 | > 100 | > 100 |  | > 100 | > 100 | > 100 | > 100 | > 100 | > 100 | > 100 | > 100 | > 100 |  | 
23 | C/C(=N\NS(=O)(=O)c1ccc(C)cc1)c1ccccn1 | > 100 | > 100 | > 100 | 73.3 | > 100 | > 100 | > 100 | > 100 | > 100 | > 100 | > 100 | > 100 | > 100 | > 100 | > 100 | 83.3 | > 100 | > 100 | > 100 | 
24 | CNC1(c2cc3ccccc3s2)CCCCC1 | 36 | 49 | > 100 |  | 39.7 | 35.1 | 67.8 | 67.1 | 28.7 | > 100 | > 100 |  | 43.1 | 84.6 | 95.7 | > 100 | > 100 | > 100 |  | 39.9
25 | O=C1/C(=C/C=C/c2ccccc2)CCC1CNc1ccccc1 (configuration not stated) | > 100 | > 100 | > 100 | 16.7 | 41.2 | > 100 | 63.9 | 38.1 | > 100 | > 100 | > 100 | > 100 | 39.3 | > 71.8 | > 100 | > 100 | 50.1 | > 100 | > 100 | 
26 | COc1cc(C=O)c(-c2c(C=O)ccc3c2OCO3)c(OC)c1OC | > 100 | > 100 | > 100 | 81.1 | > 100 | > 100 | > 100 |  | > 100 | > 100 | > 100 | > 100 | > 100 | > 100 | > 100 | > 100 | > 100 | > 100 |  | 
27 | O=C(/C=C/c1ccc(O)c(O)c1)OCC(OC(=O)/C=C/c1ccc(O)c(O)c1)C(=O)O (configuration not stated) | > 100 | > 100 | > 100 |  | > 100 | > 100 | > 100 | > 100 | > 100 | > 100 | > 100 |  | > 100 | > 100 | > 100 | > 100 | > 100 | > 100 | > 100 | > 100
